From paper PMC9848351, “Discovery of new pyridine-quinoline hybrids as competitive and non-competitive PIM-1 kinase inhibitors with apoptosis induction and caspase 3/7 activation capabilities” (Journal of Enzyme Inhibition and Medicinal Chemistry, 2023)

Tests used:
[1] = test system: prostate cancer cell line (PC-3); assay: MTT anticancer activity, PC-3; format: cell-based, human; settings: Homo sapiens, 72 h, PC-3, 72 h, mean ± SEM
How it was run: (§1)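 Cells seeded at 5x10^3/well (Caco-2 in DMEM, others in RPMI-1640, 10% FBS) and exposed to serial compound concentrations for 72 h at 37 °C, 5% CO2, starting 24 h after seeding. MTT (3 h, 37 °C) read at 570 nm after DMSO solubilisation; IC50 calculated from viability.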

[2] = test system: caspase 3/7 in HepG-2 cells; assay: Caspase 3/7 activation assay (Apo-ONE kit); format: cell-based, human; settings: caspase 3/7, relative to untreated HepG2 cells; mean ± SEM
Excerpt: The percentage of caspase 3/7 activation was quantified using the Apo-ONE ® caspase 3/7 kit following the manufacturer’s instructions[27] (Supplementary Page S56).
It’s a fluorescence assay that measures caspase-3 and −7 activities. Caspase 3/7 activators are well known as apoptotic inducers.
Caspase 3/7 activation assay
The Apo-ONE ® caspase 3/7 kit following the manufacturer’s instructions was used for quantifying the percentage of caspase 3/7 activation. The fluorescence substrate present in the kit was cut by caspases to produce fluorescence signal. This signal was measured by the fluorescence omega microplate reader (BMG LabTech, Germany) at 490 nm excitation and 520 nm emission.
Data were expressed as mean ± standard error of the mean (SEM). Statistical significance was estimated by the multiple comparisons Tukey post-hoc analysis of variance (ANOVA) using the SPSS16 program. When p < 0.05, the differences were marked as statistically significant.
PIM-1 and PIM-2 kinase inhibitory activity
PIM-1 and PIM-2 kinase utilizing PIM-1 and PIM-2 Kinase Assay Kit – Promega Corporation catalog #V4032, following the manufacturer’s instructions 26 […]
Information Classification: General

[3] = test system: Colon cancer cells (Caco-2); assay: MTT anticancer activity, Caco-2; format: cell-based, human; settings: for IC50: Homo sapiens, Caco-2, 72 h, MTT, mean ± SEM; for Caco-2 LE: ligand efficiency from IC50 and number of heavy atoms; for Caco-2 LLE: ligand lipophilic efficiency, potency in terms of lipophilicity; for Caco-2 SI: selectivity index, Wi-38 versus Caco-2
How it was run: as §1

NFS-60 = assay: Flow cytometric annexin V/PI analysis of apoptosis, NFS-60; format: cell-based, human; settings: IC50 of compound, 72 h, mean ± SEM
Method: (§2) The apoptosis-dependent […] was determined by quantification of annexin-stained apoptotic cells using the FITC signal detector (FL1) against the phycoerythrin emission signal detector (FL2) (Supplementary Page S55). […]
(§3) MTT method was used for assaying cell viability 25. Twenty microliters of 5 mg/ml MTT (Sigma, USA) was added to each well and the plate was incubated at […]
(§4) 37 °C for 3 h. […]
(§5) Graphpad Instat software.
(§6) Determination of the anticancer activity
(§7) Anticancer effect of the above-mentioned compounds was evaluated using four human cancer cell lines. Colon cancer cells (Caco-2) were maintained in DMEM (Lonza, USA) containing 10% FBS while myeloid leukemia cell line (NFS-60), liver cancer cell line (HepG-2) and prostate cancer cell line (PC-3) were cultured in RPMI-1640 (Lonza, USA) supplemented with 10% FBS. All cancer cells (5x10^3 cells/well) were seeded in sterile 96-well plates. After 24h, serial concentrations of the tested compounds and Dox were incubated with four cancer cell lines for 72 h at 37 °C in 5% CO2 incubator. MTT method was done as described above. The Graphpad Instat software was used for calculating the half maximal inhibitory concentration (IC50) values. […]
(§8) Flow cytometric analysis of apoptosis
(§9) Caco-2, PC-3 and NFS-60 cell lines. After trypsinization, the untreated and treated cells were incubated with annexin V/PI for 15 min. Then cells were fixed and incubated with streptavidin-fluorescein (5 µg/mL) for 15 min. The apoptosis-dependent anticancer effect was determined by quantification of annexin-stained apoptotic cells using the FITC signal detector (FL1) against the phycoerythrin emission signal detector (FL2). […]

PC-3 = assay: Flow cytometric annexin V/PI analysis of apoptosis, PC-3; format: cell-based, human; settings: IC50 of compound, 72 h, mean ± SEM
Method: as §2, §3, §4, §5, §6, §7, §8, §9

PIM-2 kinase = PIM-2 kinase (Homo sapiens, UniProt Q9P1W9); assay: PIM-2 kinase inhibitory activity (Promega kinase assay kit)
Chain of PIM-2 kinase (Q9P1W9 whole entry): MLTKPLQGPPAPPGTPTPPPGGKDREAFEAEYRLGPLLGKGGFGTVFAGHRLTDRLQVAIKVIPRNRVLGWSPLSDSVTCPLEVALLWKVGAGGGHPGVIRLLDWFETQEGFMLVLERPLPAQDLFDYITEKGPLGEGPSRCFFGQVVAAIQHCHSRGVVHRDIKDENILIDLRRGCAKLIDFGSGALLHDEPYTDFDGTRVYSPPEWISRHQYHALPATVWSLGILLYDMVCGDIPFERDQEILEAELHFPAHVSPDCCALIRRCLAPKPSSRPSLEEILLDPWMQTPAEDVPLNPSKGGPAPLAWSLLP

SMILES	IC50 [1]	IC50 [3]	Caco-2 LE [3]	Caco-2 LLE [3]	IC50 (PIM-2 kinase)	Fold increase in caspase activity [2]	Caco-2 SI [3]	total percentage of the apoptotic cell population, NFS-60 (NFS-60)	total percentage of the apoptotic cell population, PC-3 (PC-3)
COc1ccc2[nH]c(=O)c(-c3cc(-c4cccc(O)c4)[nH]c(=O)c3C#N)cc2c1 [13c, 6-(3-Hydroxyphenyl)-4-(6-methoxy-2-oxo-1,2-dihydroquinolin-3-yl)-2-oxo-1,2-dihydropyridine-3-carbonitrile]	22.5 ± 2 nM	33.7 ± 6 nM	0.35	5.11	–	–	1.033	58.83 ± 0.36%	57.91 ± 0.34%
N#Cc1c(-c2cc3cc(Cl)ccc3nc2N2CCOCC2)cc(-c2cccc(O)c2)[nH]c1=O [5b, 4-(6-Chloro-2-morpholin-4-yl-quinolin-3-yl)-6-(3-hydroxyphenyl)-2-oxo-1,2-dihydropyridine-3-carbonitrile]	26.1 ± 4 nM	45.3 ± 1 nM	0.30	3.28	670 nM	–	3.775	54.2 ± 0.47%	50.7 ± 0.58%
COc1ccc2nc(N3CCOCC3)c(-c3cc(-c4cccc(O)c4)[nH]c(=O)c3C#N)cc2c1 [5c, 6-(3-Hydroxyphenyl)-4-(6-methoxy-2-morpholin-4-yl-quinolin-3-yl)-2-oxo-1,2-dihydropyridine-3-carbonitrile]	27.2 ± 3 nM	36.1 ± 0.1 nM	0.30	4.00	1660 nM	–	19.861	51.53 ± 0.09%	47.26 ± 0.92%

Now those with a lower IC50 [1], led by results:

IC50 [1]	IC50 [3]	Caco-2 LE [3]	Caco-2 LLE [3]	IC50 (PIM-2 kinase)	SMILES	Fold increase in caspase activity [2]	Caco-2 SI [3]	total percentage of the apoptotic cell population, NFS-60 (NFS-60)	total percentage of the apoptotic cell population, PC-3 (PC-3)
20 ± 3 nM	22.8 ± 1 nM	0.39	5.31	–	N#Cc1c(-c2cc3ccccc3[nH]c2=O)cc(-c2cccc(O)c2)[nH]c1=O [13a, 6-(3-Hydroxyphenyl)-2-oxo-4-(2-oxo-1,2-dihydroquinolin-3-yl)-1,2-dihydropyridine-3-carbonitrile]	–	1.118	59.23 ± 0.04%	59.71 ± 0.82%
16.8 ± 0.1 nM	14.1 ± 4 nM	0.40	5.18	–	N#Cc1c(-c2cc3ccccc3[nH]c2=O)cc(-c2cccc(O)c2)nc1S [14a, 6-(3-Hydroxyphenyl)-2-mercapto-4-(2-oxo-1,2-dihydroquinolin-3-yl)pyridine-3-carbonitrile]	1.86 ± 0.11 fold	21.206	42.005 ± 0.32%	56.545 ± 0.98%
